# Values of other authors as cited in patent US6403086B1, “Administering extracts of morinda citrifolia, red wine, prune, blueberry, pomegranate, apple and an enzyme mixture” (priority 2001, dated 2002).
# Settings: supplementation with 30 IU to 100 IU
substance,measurement,value
vitamin E,lower risk of heart disease,41%
